Experimental data from patent publication US11053204B2, “Pyrimidinyloxy benzene derivatives as herbicides” (FMC Corporation, priority 2015, dated 2021).

Assays:
Format in all cases: in vivo
[1] = system: Italian ryegrass (Lolium multiflorum); assay: Test A preemergence, visual injury rating; conditions: Lolium multiflorum, pre-emergence, 240 h, 0 to 100 scale (0 no effect, 100 complete control), read-out: Ryegrass, Italian plant response rating
Procedure, shortened: (§1)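 Scoring: eye-based comparison with untreated controls, 0 for no effect through 100 for complete control, at about day 10. Treatments: directed soil spray preemergence; foliar spray postemergence on 2–10 cm plants at the one- to two-leaf stage. Medium: loam soil with sand.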

[2] = system: pigweed (Amaranthus retroflexus); assay: Test A preemergence, visual injury rating; conditions: Amaranthus retroflexus, pre-emergence, 240 h, 0 to 100 scale (0 no effect, 100 complete control), read-out: Pigweed plant response rating
Procedure, shortened: as §1

[3] = system: ragweed (common ragweed, Ambrosia elatior); assay: Test A preemergence, visual injury rating; conditions: Ambrosia artemisiifolia, pre-emergence, 240 h, 0 to 100 scale (0 no effect, 100 complete control), read-out: Ragweed plant response rating
Procedure, shortened: as §1

[4] = system: giant foxtail (Setaria faberii); assay: Test A preemergence, visual injury rating; conditions: Setaria faberi, pre-emergence, 240 h, 0 to 100 scale (0 no effect, 100 complete control), read-out: Foxtail, Giant plant response rating
Procedure, shortened: as §1

[5] = system: barnyardgrass (Echinochloa crus-galli); assay: Test A preemergence, visual injury rating; conditions: Echinochloa crus-galli, pre-emergence, 240 h, 0 to 100 scale (0 no effect, 100 complete control), read-out: Barnyardgrass plant response rating
Procedure, shortened: as §1

[6] = system: kochia (Kochia scoparia); assay: Test A preemergence, visual injury rating; conditions: Bassia scoparia, pre-emergence, 240 h, 0 to 100 scale (0 no effect, 100 complete control), read-out: Kochia plant response rating
Procedure, shortened: as §1

[7] = system: galium (catchweed bedstraw, Galium aparine); assay: Test C postemergence, plant response rating; conditions: Galium, post-emergence
Procedure, shortened: (§2)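 After sowing in loam–sand blend or silt loam, pots were sprayed preemergence; separately grown 1- to 4-leaf plants were sprayed postemergence. Following 13 to 15 d under greenhouse conditions, injury was rated visually on a 0 to 100 scale.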

[8] = system: wheat (winter wheat, Triticum aestivum); assay: Test C postemergence, plant response rating; conditions: Triticum aestivum, post-emergence
Procedure, shortened: as §2

[9] = system: soybean (Glycine max); assay: Test C postemergence, plant response rating; conditions: Glycine max, post-emergence
Procedure, shortened: as §2

[10] = system: foxtail, giant (giant foxtail, Setaria faberii); assay: Test C postemergence, plant response rating; conditions: Setaria faberi, post-emergence
Procedure, shortened: as §2

[11] = system: corn (Zea mays); assay: Test C postemergence, plant response rating; conditions: Zea mays, post-emergence
Procedure, shortened: as §2

[12] = system: lambsquarters (Chenopodium album); assay: Test C postemergence, plant response rating; conditions: Chenopodium album, post-emergence
Procedure, shortened: as §2

[13] = system: blackgrass (Alopecurus myosuroides); assay: Test C postemergence, plant response rating; conditions: Alopecurus myosuroides, post-emergence
Procedure, shortened: as §2

[14] = system: ryegrass, Italian (Italian ryegrass, Lolium multiflorum); assay: Test C postemergence, plant response rating; conditions: Lolium multiflorum, post-emergence
Procedure, shortened: as §2

[15] = system: crabgrass, large (large crabgrass, Digitaria sanguinalis); assay: Test C postemergence, plant response rating; conditions: Digitaria sanguinalis, post-emergence
Procedure, shortened: as §2

[16] = system: nutsedge, yellow (yellow nutsedge, Cyperus esculentus); assay: Test C postemergence, plant response rating; conditions: Cyperus, post-emergence
Procedure, shortened: as §2

[17] = system: chickweed (common chickweed, Stellaria media); assay: Test C postemergence, plant response rating; conditions: Stellaria media, post-emergence
Procedure, shortened: as §2

[18] = system: oat, wild (wild oat Avena fatua); assay: Test C postemergence, plant response rating; conditions: Avena fatua, post-emergence
Procedure, shortened: as §2

[19] = 62 g ai/ha, scale 0 to 100 (0 no effect, 100 complete control)
[20] = 125 g ai/ha, scale 0 to 100 (0 no effect, 100 complete control)

O=C(OCCCC(F)(F)F)c1c(Br)cccc1Oc1ncc(Cl)cn1 [Compound 20, 4,4,4-trifluorobutyl 2-bromo-6-[(5-chloro-2-pyrimidinyl)oxy]benzoate]
pest or weed control at 125 g/ha ([1]; 125 g ai/ha): 30%
pest or weed control at 500 g/ha ([1]; 500 g ai/ha): 90%
pest or weed control at 125 g/ha ([2]; 125 g ai/ha): 100%
pest or weed control at 500 g/ha ([2]; 500 g ai/ha): 100%
pest or weed control at 125 g/ha ([3]; 125 g ai/ha): 0%
pest or weed control at 500 g/ha ([3]; 500 g ai/ha): 0%
pest or weed control at 125 g/ha ([4]; 125 g ai/ha): 100%
pest or weed control at 500 g/ha ([4]; 500 g ai/ha): 100%
pest or weed control at 125 g/ha ([5]; 125 g ai/ha): 100%
pest or weed control at 500 g/ha ([5]; 500 g ai/ha): 100%
pest or weed control at 125 g/ha ([6]; 125 g ai/ha): 30%
pest or weed control at 500 g/ha ([6]; 500 g ai/ha): 100%
pest or weed control at 16 g/ha ([7]; 16 g ai/ha, scale 0 to 100): 70%
pest or weed control at 31 g/ha ([7]; 31 g ai/ha, scale 0 to 100): 60%
pest or weed control at 62 g/ha [7, 19]: 80%
pest or weed control at 125 g/ha [7, 20]: 98%
plant injury at 16 g/ha ([8]; 16 g ai/ha, scale 0 to 100): 0%
plant injury at 31 g/ha ([8]; 31 g ai/ha, scale 0 to 100): 0%
plant injury at 62 g/ha ([8]; 62 g ai/ha, scale 0 to 100 (0 no effect, 100 complete control), read-out: Wheat plant response rating): 5%
plant injury at 125 g/ha [8, 20]: 5%
plant injury at 16 g/ha ([9]; 16 g ai/ha, scale 0 to 100): 25%
plant injury at 31 g/ha ([9]; 31 g ai/ha, scale 0 to 100): 65%
plant injury at 62 g/ha [9, 19]: 55%
plant injury at 125 g/ha [9, 20]: 60%
pest or weed control at 16 g/ha ([10]; 16 g ai/ha, scale 0 to 100): 10%
pest or weed control at 31 g/ha ([10]; 31 g ai/ha, scale 0 to 100): 10%
pest or weed control at 62 g/ha [10, 19]: 10%
pest or weed control at 125 g/ha [10, 20]: 25%
Corn plant response rating (crop injury, 0 = no effect, 100 = complete kill) at 16 g/ha ([11]; 16 g ai/ha, scale 0 to 100): 5%
Corn plant response rating (crop injury, 0 = no effect, 100 = complete kill) at 31 g/ha ([11]; 31 g ai/ha, scale 0 to 100): 10%
plant injury at 62 g/ha [11, 19]: 10%
plant injury at 125 g/ha [11, 20]: 20%
pest or weed control at 16 g/ha ([12]; 16 g ai/ha, scale 0 to 100): 65%
pest or weed control at 31 g/ha ([12]; 31 g ai/ha, scale 0 to 100): 80%
pest or weed control at 62 g/ha [12, 19]: 70%
pest or weed control at 125 g/ha [12, 20]: 85%
pest or weed control at 16 g/ha ([13]; 16 g ai/ha, scale 0 to 100): 5%
pest or weed control at 31 g/ha ([13]; 31 g ai/ha, scale 0 to 100): 5%
pest or weed control at 62 g/ha [13, 19]: 5%
pest or weed control at 125 g/ha [13, 20]: 10%
pest or weed control at 16 g/ha ([14]; 16 g ai/ha, scale 0 to 100): 0%
pest or weed control at 31 g/ha ([14]; 31 g ai/ha, scale 0 to 100): 5%
pest or weed control at 62 g/ha [14, 19]: 10%
pest or weed control at 125 g/ha [14, 20]: 5%
pest or weed control at 16 g/ha ([15]; 16 g ai/ha, scale 0 to 100): 10%
pest or weed control at 31 g/ha ([15]; 31 g ai/ha, scale 0 to 100): 10%
pest or weed control at 62 g/ha [15, 19]: 15%
pest or weed control at 125 g/ha [15, 20]: 15%
pest or weed control at 16 g/ha ([16]; 16 g ai/ha, scale 0 to 100): 0%
pest or weed control at 31 g/ha ([16]; 31 g ai/ha, scale 0 to 100): 5%
pest or weed control at 62 g/ha [16, 19]: 5%
pest or weed control at 125 g/ha [16, 20]: 10%
pest or weed control at 16 g/ha ([17]; 16 g ai/ha, scale 0 to 100): 60%
pest or weed control at 31 g/ha ([17]; 31 g ai/ha, scale 0 to 100): 60%
pest or weed control at 62 g/ha [17, 19]: 65%
pest or weed control at 125 g/ha [17, 20]: 75%
pest or weed control at 16 g/ha ([18]; 16 g ai/ha, scale 0 to 100): 0%
pest or weed control at 31 g/ha ([18]; 31 g ai/ha, scale 0 to 100): 0%
pest or weed control at 62 g/ha [18, 19]: 5%
pest or weed control at 125 g/ha [18, 20]: 5%
